The OPERA property sets (Mansouri et al. 2018)

SMILES	boiling point [°C]	melting point [°C]	log10 Henry constant (atm·m³/mol)	log10 vapour pressure (mmHg)	ready biodegradability	log10 Koa	log10 Koc (L/kg)
CCOc1ccc([N+](=O)[O-])cc1	283	60	–	–	–	–	–
C=CCC(C(=O)O)C(=O)O	–	105	–	–	–	–	–
Clc1cc(-c2c(Cl)cccc2Cl)c(Cl)c(Cl)c1Cl	–	–	-4.41	–	–	–	–
COC(=O)C1(S(=O)(=O)c2ccc(Br)cc2)CCC1	–	95	–	–	–	–	–
C=C(C)C(C)CC (configuration not stated)	84.3	-134	–	1.91	–	–	–
C[C@@H](Cc1ccccc1)NCCC(c1ccccc1)c1ccccc1	–	36.5	–	–	–	–	–
N=C(Nc1ccccc1)Nc1ccccc1	–	150	–	–	not readily biodegradable	–	–
CCCCC(=O)c1ccccc1	245	-9.4	–	–	–	–	–
COC(=O)[C@H]1[C@H]2C[C@@H]3c4[nH]c5ccccc5c4CCN3C[C@H]2C[C@@H](OC(=O)c2cc(OC)c(OC)c(OC)c2)[C@@H]1OC	–	230	–	–	–	–	–
Clc1cc2c(oc3cc(Cl)c(Cl)c(Cl)c32)c(Cl)c1Cl	–	–	–	–	–	10.8	–
CC1(C)C=Cc2c(ccc3c2OC2c4ccc(O)cc4OCC32)O1 (configuration not stated)	–	178	–	–	–	–	–
CC[N+](=O)[O-]	114	-89.5	-4.32	1.32	–	2.88	–
O=C(OCC(=O)N1CCC(O)CC1)c1ccccc1	–	122	–	–	–	–	–
CCC(C)(CO)CO	226	40.3	–	–	–	–	–
C=C[C@H](C)O	96.5	–	–	–	–	–	–
CCN(CC)c1nc(Cl)nc(NC(C)C)n1	–	–	–	–	–	–	2.91
CC(=O)O[C@H]1C[C@@H]2CC[C@@H]3[C@H](CC[C@@]4(C)[C@H]3C[C@H]([N+]3(C)CCCCC3)[C@@H]4OC(C)=O)[C@@]2(C)C[C@@H]1[N+]1(C)CCCCC1.[Br-].[Br-]	–	215	–	–	–	–	–
N#CCCN	185	–	–	-0.0655	–	–	–
COc1ccccc1[N+](=O)[O-]	277	10.5	–	-2.44	not readily biodegradable	–	–
CCc1ccc(C)nc1	178	-70.9	–	0.155	–	–	–
C[C@@H]1CC[C@H](O)C1	148	–	–	–	–	–	–

SMILES	boiling point [°C]	melting point [°C]	log10 Henry constant (atm·m³/mol)	log10 vapour pressure (mmHg)	ready biodegradability	log10 Koa	log10 Koc (L/kg)
C=C(C)CCO	132	–	–	0.551	–	–	–
CC1=C(C)CCCC1	138	-84.1	–	–	–	–	–
N#Cc1nccnc1C#N	–	132	–	–	–	–	–
CCOC(CO)OCC	167	–	–	–	–	–	–
CC(=O)N(C)C(C)=O	195	-25	–	–	–	–	–
NS(=O)(=O)c1ccc(Cl)c(S(N)(=O)=O)c1	–	207	–	–	–	–	–
CC=CCCCC	–	–	–	1.68	–	–	–
CC(C)(C)C1CCC(O)CC1 (configuration not stated)	–	66	–	-1.15	–	–	–
CC(Cl)(Cl)Cl	74	-30.4	-1.76	2.09	not readily biodegradable	2.7	1.95
CC(C)OC(=O)c1ccccc1	216	–	–	–	–	–	–
CCC(=O)NC	148	-30.9	–	0.0603	–	–	–
OCC1c2ccccc2-c2ccccc21	–	106	–	–	–	–	–
Cc1cccc2cccnc12	248	-80	–	-1.6	–	–	–
CCCC[C@@H](O)CCC	175	–	–	-0.507	–	–	–
C=CC(Cl)(Cl)Cl	114	-30	–	–	–	–	–
CC1(C)CCCCC1O (configuration not stated)	177	8	–	–	–	–	–
Cc1c(C)c2ccccc2c2ccccc12	–	144	–	–	–	–	–
C=CC(F)(F)Br	42	–	–	–	–	–	–
CC(C)(C)C(O)C(Oc1ccc(-c2ccccc2)cc1)n1cncn1 (configuration not stated)	–	127	–	–	–	–	–
CCC=NO	132	40	–	–	–	–	–
COc1ccc(C#N)cc1	256	61.5	–	–	–	–	–

SMILES	boiling point [°C]	melting point [°C]	log10 Henry constant (atm·m³/mol)	log10 vapour pressure (mmHg)	ready biodegradability	log10 Koa	log10 Koc (L/kg)
CCC(Cl)CCl (configuration not stated)	124	–	–	1.32	–	–	–
CCCCCCCCCCCC#N	277	4	–	-2.63	–	–	–
CC(C)(c1ccccc1)c1ccccc1	282	29	–	–	–	–	–
O=Cc1cccc(O)c1O	235	108	–	–	–	–	–
COc1cc(O)c2c(c1)OC(c1ccc(O)cc1)CC2=O (configuration not stated)	–	152	–	–	–	–	–
O=C(O)CCCCCCBr	280	31	–	–	readily biodegradable	–	–
C[C@]12C/C(=C/O)C(=O)C[C@@H]1CC[C@@H]1[C@@H]2CC[C@@]2(C)[C@H]1CC[C@]2(C)O	–	179	–	–	–	–	–
CCCCCCOc1ccccc1C(N)=O	–	71	–	–	–	–	–
CC=CC=C(C)C	112	-74.2	–	–	–	–	–
COc1ccc2c(c1)N(CCCN(C)C)c1ccccc1S2	–	46	–	–	–	–	–
CN1C(=O)CN=C(c2ccccc2F)c2cc(Cl)ccc21	–	296	–	–	–	–	–
O=C1Cc2ccccc2N1	–	128	–	–	–	–	–
CCCCC(=O)c1ccc(N)cc1	–	74.5	–	–	–	–	–
O=C(Nc1ccccc1)Nc1ccnc(Cl)c1	–	167	–	-9.46	–	–	–
CCc1nccnc1CC	181	–	–	–	–	–	–
COc1ccc(C)cc1C	192	–	–	–	–	–	–
CCOC(=O)c1ccc(O)cc1	298	117	–	–	readily biodegradable	–	2.21
CCCCCCCCCCBr	241	-29.2	–	-1.4	–	–	–
CC(C)NCC(O)COc1ccc(COCCOC(C)C)cc1 (configuration not stated)	–	100	–	–	–	–	–
CCC=CBr	99	–	–	1.89	–	–	–
